pEC50: −log10 of the molar value. Converted amounts (≈) assume the structure as drawn. Like-named read-outs stand apart in the source and are kept apart here. Starred links: 1 amine or outer side, 2 acyl side, 3 side chain; linkers in the order of their positions; H or OH if unused. Positions of bridges follow the written chain, without caps; N, C: chain ends. Residues, ends and D or L forms follow the SMILES beside them. Groups on a side chain read outwards from the residue. *: point of attachment. C20 diacid = O=C(O)CCCCCCCCCCCCCCCCCCC(=O)*; C18 diacid = O=C(O)CCCCCCCCCCCCCCCCC(=O)*; γGlu = O=C(O)[C@H](CCC(=O)[*:2])N[*:1]; AEEA = NCCOCCOCC(=O)O
Tests used:
[1] = Assay (III) ThT fibrillation assay for physical stability; assay type: physicochemical
Outline: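 Freshly prepared formulations, pH-adjusted, with 1 μM ThT; four or eight replicates incubated at 37 °C under 960 rpm orbital shaking. Fluorescence (ex 444/em 485 nm) read every 20 min; […]. Peptide concentration measured by RP-HPLC before and after the run.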

[2] = Assay (IV) determination of solubility; assay type: physicochemical
Outline: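 Solubility is measured across pH 3.0–8.0 by mixing a ~500 nmol/ml aqueous polypeptide stock 1:1 with 100 mM glycylglycine or bistrispropane buffers. Samples stand 18 hours at room temperature, then are centrifuged and the soluble concentration is determined by HPLC.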

[3] = biological target: T1, human calcitonin receptor (Homo sapiens, UniProt P30988); assay: Assay (II)a functional CRE-luciferase assay, human calcitonin receptor; assay type: cell-based
T1 construct: expressed in transfected cells; host or cells: BHK570
T1 sequence (P30988 25-474): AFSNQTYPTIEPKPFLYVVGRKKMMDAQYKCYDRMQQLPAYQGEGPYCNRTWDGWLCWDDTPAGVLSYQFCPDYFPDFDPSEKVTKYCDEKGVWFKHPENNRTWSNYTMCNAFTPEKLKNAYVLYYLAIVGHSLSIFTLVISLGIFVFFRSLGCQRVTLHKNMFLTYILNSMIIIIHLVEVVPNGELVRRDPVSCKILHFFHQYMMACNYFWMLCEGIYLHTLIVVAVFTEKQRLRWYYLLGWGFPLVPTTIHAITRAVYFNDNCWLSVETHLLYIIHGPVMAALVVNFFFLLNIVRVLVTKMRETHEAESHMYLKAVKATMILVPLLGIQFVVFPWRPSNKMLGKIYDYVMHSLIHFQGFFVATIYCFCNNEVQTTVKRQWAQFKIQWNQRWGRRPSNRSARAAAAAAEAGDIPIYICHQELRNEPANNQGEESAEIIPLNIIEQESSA

[4] = biological target: T2, human amylin receptor (amylin 3(a) receptor: human calcitonin receptor + RAMP-3) (Homo sapiens, UniProt O60896+P30988); assay: Assay (II)a functional CRE-luciferase assay, human amylin receptor; assay type: cell-based; conditions: Table 2; BHK amylin 3(a)-receptor/CRE-luc cells
T2 construct: expressed in transfected cells; host or cells: BHK570
T2 sequence (P30988 25-474): T1 sequence (P30988 25-474)
T2 sequence (O60896 24-148 partner): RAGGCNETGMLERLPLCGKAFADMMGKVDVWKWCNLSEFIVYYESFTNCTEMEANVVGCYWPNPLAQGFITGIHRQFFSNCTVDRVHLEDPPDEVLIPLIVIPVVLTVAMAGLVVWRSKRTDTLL

[5] = bistrispropane buffer, pH 6, pH 6.0, read-out: Solubility pH 6.0
[6] = bistrispropane buffer, pH 6.5, pH 6.5, read-out: Solubility pH 6.5
[7] = bistrispropane buffer, pH 7, pH 7.0, 18 hours at room temperature, Table 3, read-out: Solubility pH 7.0
[8] = bistrispropane buffer, pH 7, pH 7.0, Table 8, read-out: Solubility pH 7.0
[9] = bistrispropane buffer, pH 7, pH 7.0, read-out: Solubility pH 7.0
[10] = bistrispropane buffer, pH 7.5, pH 7.5, read-out: Solubility pH 7.5
[11] = bistrispropane buffer, pH 8, pH 8.0, read-out: Solubility pH 8.0
[12] = glycylglycine buffer, pH 3, pH 3.0, read-out: Solubility pH 3.0
[13] = glycylglycine buffer, pH 4, pH 4.0, 18 hours at room temperature, Table 2, read-out: Solubility pH 4.0
[14] = glycylglycine buffer, pH 4, pH 4.0, read-out: Solubility pH 4.0
[15] = glycylglycine buffer, pH 5, pH 5.0, read-out: Solubility pH 5.0
[16] = Table 7, human calcitonin (CTa) receptor

Row | ThT pH 4.0 lag time ([1]; Table 8) [h] | ThT pH 4.0 lag time ([1]; Table 9) [h] | ThT pH 4.0 lag time ([1]; ThT fibrillation assay) [h] | ThT pH 4.0 lag time (h) ([1]; ThT fibrillation assay) | solubility at 18 h [2, 5] [µM] | solubility at 18 h [2, 6] [µM] | solubility at 18 h [2, 7] [µM] | solubility at 18 h [2, 8] [µM] | solubility at 18 h ([2]; bistrispropane buffer, pH 7, pH 7.0, Table 9, read-out: Solubility pH 7.0) [µM] | solubility at 18 h [2, 9] [µM] | solubility at 18 h ([2]; bistrispropane buffer, pH 7.5, pH 7.5, Table 9, read-out: Solubility pH 7.5) [µM] | solubility at 18 h [2, 10] [µM] | solubility at 18 h [2, 11] [µM] | solubility at 18 h [2, 12] [µM] | solubility at 18 h [2, 13] [µM] | solubility at 18 h [2, 14] [µM] | solubility at 18 h [2, 15] [µM] | pEC50 ([3]; Table 11, read-out: CTa receptor human EC50) | pEC50 [4] | pEC50 [3, 16] | SMILES
1 | >45 | >45 | >45 | >45 | > 200 | > 200 | > 200 | > 200 | > 200 | > 200 | > 200 | > 200 | > 200 | > 200 | > 200 | > 200 | > 200 | 8.07 | 8.76 |  | CC[C@H](C)[C@H](NC(=O)[C@@H]1CCCN1C(=O)CNC(=O)[C@H](Cc1ccccc1)NC(=O)[C@H](CC(N)=O)NC(=O)[C@H](CO)NC(=O)[C@H](CO)NC(=O)[C@H](CO)NC(=O)[C@H](Cc1c[nH]cn1)NC(=O)[C@H](CCCCNC(=O)COCCOCCNC(=O)COCCOCCNC(=O)CC[C@H](NC(=O)CCCCCCCCCCCCCCCCC(=O)O)C(=O)O)NC(=O)[C@H](CC(C)C)NC(=O)[C@H](Cc1ccccc1)NC(=O)[C@H](CCC(=O)O)NC(=O)[C@H](C)NC(=O)[C@H](CC(C)C)NC(=O)[C@H](CCCNC(=N)N)NC(=O)[C@H](CCC(N)=O)NC(=O)[C@@H](NC(=O)[C@H](C)NC(=O)[C@@H]1CSSC[C@H](NC(=O)[C@@H](N)CCCCN)C(=O)N[C@@H](CC(N)=O)C(=O)N[C@@H]([C@@H](C)O)C(=O)N[C@@H](C)C(=O)N[C@@H]([C@@H](C)O)C(=O)N1)[C@@H](C)O)C(=O)N[C@@H](CC(C)C)C(=O)N1CCC[C@H]1C(=O)N1CCC[C@H]1C(=O)N[C@H](C(=O)N[C@@H](CC(N)=O)C(=O)N[C@H](C(=O)NCC(=O)N[C@@H](CO)C(=O)N[C@@H](CCC(=O)O)C(=O)N[C@H](C(=O)N[C@@H](Cc1ccc(O)cc1)C(N)=O)[C@@H](C)O)C(C)C)[C@@H](C)O [Example 83, N-epsilon17-[2-(2-{2-[2-(2-{2-[(S)-4-Carboxy-4-(17-carboxyheptadecanoylamino)butyrylamino]ethoxy}ethoxy)acetylamino]ethoxy}ethoxy)acetyl]-[Glu14,Lys17,Ser21,Glu35]-pramlintide] (H-KCNTATCATQRLAEFLK([AEEA-AEEA-γGlu-C18 diacid])HSSSNFGPILPPTNVGSETY-NH2; disulfide 2-7 (inferred); N-terminus and C-terminus assumed)
2 |  |  | >45 | >45 | 185 (≈ 845 µg/mL) | 64 (≈ 292 µg/mL) |  |  |  | 22 (≈ 100 µg/mL) |  | 47 (≈ 215 µg/mL) | 109 (≈ 498 µg/mL) | > 200 | > 200 | > 200 | > 200 |  | 9.88 | 9.82 | CC[C@H](C)[C@H](NC(=O)[C@@H]1CCCN1C(=O)CNC(=O)[C@H](Cc1ccccc1)NC(=O)[C@H](CC(N)=O)NC(=O)[C@H](CC(N)=O)NC(=O)[C@H](CO)NC(=O)[C@H](CO)NC(=O)[C@H](Cc1c[nH]cn1)NC(=O)[C@H](Cc1c[nH]cn1)NC(=O)[C@H](CC(C)C)NC(=O)[C@H](Cc1ccccc1)NC(=O)[C@H](CCC(=O)O)NC(=O)[C@H](C)NC(=O)[C@H](CC(C)C)NC(=O)[C@H](CCCNC(=N)N)NC(=O)[C@H](CCC(N)=O)NC(=O)[C@@H](NC(=O)[C@H](C)NC(=O)[C@@H]1CSSC[C@H](NC(=O)[C@H](CCCCN)NC(=O)[C@H](CO)NC(=O)CC[C@H](NC(=O)CCCCCCCCCCCCCCCCCCC(=O)O)C(=O)O)C(=O)N[C@@H](CC(N)=O)C(=O)N[C@@H]([C@@H](C)O)C(=O)N[C@@H](C)C(=O)N[C@@H]([C@@H](C)O)C(=O)N1)[C@@H](C)O)C(=O)N[C@@H](CC(C)C)C(=O)N1CCC[C@H]1C(=O)N1CCC[C@H]1C(=O)N[C@H](C(=O)N[C@@H](CC(N)=O)C(=O)N[C@H](C(=O)NCC(=O)N[C@@H](CO)C(=O)N[C@@H](Cc1c[nH]cn1)C(=O)N[C@H](C(=O)N[C@@H](Cc1ccc(O)cc1)C(N)=O)[C@@H](C)O)C(C)C)[C@@H](C)O [Example 85, N-alpha-[(S)-4-Carboxy-4-(19-carboxynonadecanoylamino)butyryl]-Ser-[Glu14,His17,His35]-pramlintide] ({C20 diacid-γGlu}-SKCNTATCATQRLAEFLHHSSNNFGPILPPTNVGSHTY-NH2; disulfide 3-8 (inferred); C-terminus assumed)
3 |  |  |  | 5 | > 200 | > 200 | > 200 |  |  | > 200 |  | > 200 | > 200 | > 200 | > 200 | > 200 | > 200 |  | 10.26 | 10.28 | CC[C@H](C)[C@H](NC(=O)[C@@H]1CCCN1C(=O)CNC(=O)[C@H](Cc1ccccc1)NC(=O)[C@H](CC(N)=O)NC(=O)[C@H](CC(N)=O)NC(=O)[C@H](CO)NC(=O)[C@H](CO)NC(=O)[C@H](Cc1c[nH]cn1)NC(=O)[C@@H](NC(=O)[C@H](CC(C)C)NC(=O)[C@H](Cc1ccccc1)NC(=O)[C@H](CCC(=O)O)NC(=O)[C@H](C)NC(=O)[C@H](CC(C)C)NC(=O)[C@H](CCCNC(=N)N)NC(=O)[C@H](CCC(N)=O)NC(=O)[C@@H](NC(=O)[C@H](C)NC(=O)[C@@H]1CSSC[C@H](NC(=O)[C@H](CCCCN)NC(=O)CC[C@H](NC(=O)CCCCCCCCCCCCCCCCCCC(=O)O)C(=O)O)C(=O)N[C@@H](CC(N)=O)C(=O)N[C@@H]([C@@H](C)O)C(=O)N[C@@H](C)C(=O)N[C@@H]([C@@H](C)O)C(=O)N1)[C@@H](C)O)C(C)C)C(=O)N[C@@H](CC(C)C)C(=O)N1CCC[C@H]1C(=O)N1CCC[C@H]1C(=O)N[C@H](C(=O)N[C@@H](CC(N)=O)C(=O)N[C@H](C(=O)NCC(=O)N[C@@H](CO)C(=O)N[C@@H](CC(N)=O)C(=O)N[C@H](C(=O)N1CCC[C@H]1C(N)=O)[C@@H](C)O)C(C)C)[C@@H](C)O [Example 86, N-alpha-[(S)-4-Carboxy-4-(19-carboxynonadecanoylamino)butyryl]-[Glu14,Pro37]-pramlintide] ({C20 diacid-γGlu}-KCNTATCATQRLAEFLVHSSNNFGPILPPTNVGSNTP-NH2; disulfide 2-7 (inferred); C-terminus assumed)
4 | 29 |  | 29 | 29 | > 200 | > 200 | > 200 | > 200 |  | > 200 |  | > 200 | > 200 | > 200 | > 200 | > 200 | > 200 |  | 10.27 | 10.28 | CC[C@H](C)[C@H](NC(=O)[C@@H]1CCCN1C(=O)CNC(=O)[C@H](Cc1ccccc1)NC(=O)[C@H](CC(N)=O)NC(=O)[C@H](CC(N)=O)NC(=O)[C@H](CO)NC(=O)[C@H](CO)NC(=O)[C@H](Cc1c[nH]cn1)NC(=O)[C@H](Cc1c[nH]cn1)NC(=O)[C@H](CC(C)C)NC(=O)[C@H](Cc1ccccc1)NC(=O)[C@H](CCC(=O)O)NC(=O)[C@H](C)NC(=O)[C@H](CC(C)C)NC(=O)[C@H](CCCNC(=N)N)NC(=O)[C@H](CCC(N)=O)NC(=O)[C@@H](NC(=O)[C@H](C)NC(=O)[C@@H]1CSSC[C@H](NC(=O)CNC(=O)CC[C@H](NC(=O)CCCCCCCCCCCCCCCCCCC(=O)O)C(=O)O)C(=O)N[C@@H](CC(N)=O)C(=O)N[C@@H]([C@@H](C)O)C(=O)N[C@@H](C)C(=O)N[C@@H]([C@@H](C)O)C(=O)N1)[C@@H](C)O)C(=O)N[C@@H](CC(C)C)C(=O)N1CCC[C@H]1C(=O)N1CCC[C@H]1C(=O)N[C@H](C(=O)N[C@@H](CC(N)=O)C(=O)N[C@H](C(=O)NCC(=O)N[C@@H](CO)C(=O)N[C@@H](CC(N)=O)C(=O)N[C@H](C(=O)N1CCC[C@H]1C(N)=O)[C@@H](C)O)C(C)C)[C@@H](C)O [Example 91, N-alpha-[(S)-4-Carboxy-4-(19-carboxynonadecanoylamino)butyryl]-[Gly1,Glu14,His17,Pro37]-pramlintide] ({C20 diacid-γGlu}-GCNTATCATQRLAEFLHHSSNNFGPILPPTNVGSNTP-NH2; disulfide 2-7 (inferred); C-terminus assumed)
